Source: paper PMC12090182, “Repurposing of the RIPK1-Selective Benzo[1,4]oxazepin-4-one Scaffold for the Development of a Type III LIMK1/2 Inhibitor” (ACS Chemical Biology, 2025)

Legend:
Test in all cases: DSF selectivity screening
Assay type in all cases: binding
Conditions in all cases: 10 μM compound
[1] = target: NQO2A (Homo sapiens, UniProt P16083)
Experimental: (§1) The assay was performed as previously described.[29],[35] Briefly, recombinant protein kinase domains at a concentration of 2 μM were mixed with a 10 μM compound in a buffer containing 20 mM HEPES, pH 7.5, and 500 mM NaCl. SYPRO Orange (5000×, Invitrogen) was added as a fluorescence probe (1 μL per mL). Subsequently, temperature-dependent protein unfolding profiles were measured using a QuantStudio 5 real-time PCR machine (Thermo Fisher). Excitation and emission filters were set to 465 and 590 nm, respectively. The temperature was raised with a step rate of 3 °C per minute. Data points were analyzed with internal software (Thermal Shift Software version 1.4, Thermo Fisher) using the Boltzmann equation to determine the inflection point of the transition curve (Table S4).

[2] = target: HIPK2 (Homo sapiens, UniProt Q9H2X6)
Experimental: as §1

[3] = target: MERTKA (Homo sapiens, UniProt Q12866)
Experimental: as §1

[4] = target: DAPK3A (Homo sapiens, UniProt O43293)
Experimental: as §1

[5] = target: STK6A (Homo sapiens, UniProt O14965)
Experimental: as §1

[6] = target: PDK4A (Homo sapiens, UniProt Q16654)
Experimental: as §1

[7] = target: BMP2KA (Homo sapiens, UniProt Q9NSY1)
Experimental: as §1

[8] = target: CAMKK2B (Homo sapiens, UniProt Q96RR4)
Experimental: as §1

[9] = target: MST3A (Homo sapiens, UniProt Q9Y6E0)
Experimental: as §1

[10] = target: PAK1A (Homo sapiens, UniProt Q13153)
Experimental: as §1

[11] = target: DYRK1AA (Homo sapiens, UniProt Q13627)
Experimental: as §1

[12] = target: TIF1A (Homo sapiens, UniProt O15164)
Experimental: as §1

[13] = system: CDC42BPAA
Experimental: as §1

[14] = target: MAPK13A (Homo sapiens, UniProt O15264)
Experimental: as §1

[15] = target: MARK3A (Homo sapiens, UniProt P27448)
Experimental: as §1

[16] = target: EPHA5A (Homo sapiens, UniProt P54756)
Experimental: as §1

[17] = target: GSG2A (Homo sapiens, UniProt Q8TF76)
Experimental: as §1

[18] = target: MAP2K7 (Homo sapiens, UniProt O14733)
Experimental: as §1

[19] = target: GSK3BB (Homo sapiens, UniProt P49841)
Experimental: as §1

[20] = target: FLT1A (Homo sapiens, UniProt P17948)
Experimental: as §1

[21] = target: NEK2 (Homo sapiens, UniProt P51955)
Experimental: as §1

[22] = target: AURKBA (Homo sapiens, UniProt Q96GD4)
Experimental: as §1

[23] = target: CSNK2A1A (Homo sapiens, UniProt P68400)
Experimental: as §1

[24] = target: EPHA7A (Homo sapiens, UniProt Q15375)
Experimental: as §1

[25] = target: CAMK1DA (Homo sapiens, UniProt Q8IU85)
Experimental: as §1

[26] = target: TLK1A (Homo sapiens, UniProt Q9UKI8)
Experimental: as §1

[27] = target: CDK2A (Homo sapiens, UniProt P24941)
Experimental: as §1

[28] = target: NEK7A (Homo sapiens, UniProt Q8TDX7)
Experimental: as §1

[29] = target: EPHB1A (Homo sapiens, UniProt P54762)
Experimental: as §1

[30] = target: NEK1A (Homo sapiens, UniProt Q96PY6)
Experimental: as §1

[31] = target: STK17BA (Homo sapiens, UniProt O94768)
Experimental: as §1

[32] = target: DMPKA (Homo sapiens, UniProt Q09013)
Experimental: as §1

[33] = target: MAP2K1A (Homo sapiens, UniProt Q02750)
Experimental: as §1

[34] = target: ULK3A (Homo sapiens, UniProt Q6PHR2)
Experimental: as §1

[35] = target: PKMYT1A (Homo sapiens, UniProt Q99640)
Experimental: as §1

[36] = target: FECH (Homo sapiens, UniProt P22830)
Experimental: as §1

[37] = target: MAPK8B (Homo sapiens, UniProt P45983)
Experimental: as §1

[38] = target: PIM3A (Homo sapiens, UniProt Q86V86)
Experimental: as §1

[39] = target: FGFR1B (Homo sapiens, UniProt P11362)
Experimental: as §1

[40] = target: MAPK15A (Homo sapiens, UniProt Q8TD08)
Experimental: as §1

[41] = target: RIOK1A (Homo sapiens, UniProt Q9BRS2)
Experimental: as §1

Sequence of MAP2K1A (Q02750 68-361): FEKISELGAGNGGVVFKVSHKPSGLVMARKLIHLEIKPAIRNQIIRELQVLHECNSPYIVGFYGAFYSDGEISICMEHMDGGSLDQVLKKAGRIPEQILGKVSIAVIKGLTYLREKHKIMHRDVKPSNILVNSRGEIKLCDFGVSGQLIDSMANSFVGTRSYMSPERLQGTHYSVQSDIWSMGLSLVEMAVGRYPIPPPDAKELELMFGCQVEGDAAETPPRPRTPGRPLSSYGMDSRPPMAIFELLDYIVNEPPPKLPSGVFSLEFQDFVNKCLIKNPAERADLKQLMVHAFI
Sequence of MAPK15A (Q8TD08 13-304): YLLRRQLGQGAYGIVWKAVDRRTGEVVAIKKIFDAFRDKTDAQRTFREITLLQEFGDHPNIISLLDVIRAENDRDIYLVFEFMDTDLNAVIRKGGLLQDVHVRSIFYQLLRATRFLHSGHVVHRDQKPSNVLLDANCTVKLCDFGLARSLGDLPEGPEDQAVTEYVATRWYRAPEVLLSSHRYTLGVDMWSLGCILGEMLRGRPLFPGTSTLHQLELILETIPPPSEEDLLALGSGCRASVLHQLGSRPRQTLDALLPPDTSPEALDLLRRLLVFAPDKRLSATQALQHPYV
Sequence of MERTKA (Q12866 571-864): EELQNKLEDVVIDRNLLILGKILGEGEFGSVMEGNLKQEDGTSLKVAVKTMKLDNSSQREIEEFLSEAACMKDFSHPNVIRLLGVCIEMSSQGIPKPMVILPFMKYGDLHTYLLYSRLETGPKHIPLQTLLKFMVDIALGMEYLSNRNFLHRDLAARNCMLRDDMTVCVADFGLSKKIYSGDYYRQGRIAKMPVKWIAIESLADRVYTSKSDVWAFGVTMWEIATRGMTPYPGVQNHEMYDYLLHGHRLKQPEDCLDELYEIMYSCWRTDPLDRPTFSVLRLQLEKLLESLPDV
Sequence of FGFR1B (P11362 456-767): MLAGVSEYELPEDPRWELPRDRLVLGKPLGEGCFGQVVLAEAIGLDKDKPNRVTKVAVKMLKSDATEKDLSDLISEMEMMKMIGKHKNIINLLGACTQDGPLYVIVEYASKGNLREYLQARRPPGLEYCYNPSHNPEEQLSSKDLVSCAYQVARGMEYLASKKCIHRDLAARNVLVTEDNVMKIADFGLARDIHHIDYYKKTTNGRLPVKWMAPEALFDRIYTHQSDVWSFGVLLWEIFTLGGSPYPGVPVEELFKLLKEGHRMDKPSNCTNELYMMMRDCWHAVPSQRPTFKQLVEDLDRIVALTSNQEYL
Sequence of MAPK13A (O15264 whole entry): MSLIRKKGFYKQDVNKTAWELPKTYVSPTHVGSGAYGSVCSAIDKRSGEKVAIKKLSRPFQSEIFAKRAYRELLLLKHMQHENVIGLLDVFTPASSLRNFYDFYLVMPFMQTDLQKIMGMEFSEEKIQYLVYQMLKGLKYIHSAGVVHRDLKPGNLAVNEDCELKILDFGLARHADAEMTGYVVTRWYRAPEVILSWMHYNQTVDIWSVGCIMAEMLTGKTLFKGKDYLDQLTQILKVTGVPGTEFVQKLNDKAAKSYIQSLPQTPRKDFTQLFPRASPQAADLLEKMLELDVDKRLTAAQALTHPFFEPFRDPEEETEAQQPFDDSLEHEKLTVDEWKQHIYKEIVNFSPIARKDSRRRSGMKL
Sequence of MARK3A (P27448 48-370): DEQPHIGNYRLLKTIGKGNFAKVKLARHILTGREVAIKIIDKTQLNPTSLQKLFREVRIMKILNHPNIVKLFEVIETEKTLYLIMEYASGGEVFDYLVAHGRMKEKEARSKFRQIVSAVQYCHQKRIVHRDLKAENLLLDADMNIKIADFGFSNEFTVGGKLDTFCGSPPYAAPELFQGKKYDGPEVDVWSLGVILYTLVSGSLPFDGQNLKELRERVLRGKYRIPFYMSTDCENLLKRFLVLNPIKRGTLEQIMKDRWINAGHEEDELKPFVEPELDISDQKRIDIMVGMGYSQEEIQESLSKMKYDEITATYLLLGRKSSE
Sequence of RIOK1A (Q9BRS2 143-494): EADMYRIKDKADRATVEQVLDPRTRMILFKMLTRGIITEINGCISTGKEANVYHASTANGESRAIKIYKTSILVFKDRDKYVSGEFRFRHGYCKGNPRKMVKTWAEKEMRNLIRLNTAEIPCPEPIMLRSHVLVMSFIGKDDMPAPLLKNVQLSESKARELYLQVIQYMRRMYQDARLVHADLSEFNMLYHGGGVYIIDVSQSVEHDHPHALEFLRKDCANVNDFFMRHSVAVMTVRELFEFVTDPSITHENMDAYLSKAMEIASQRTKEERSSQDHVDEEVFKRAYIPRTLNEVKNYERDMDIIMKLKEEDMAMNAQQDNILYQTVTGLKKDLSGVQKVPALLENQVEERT
Sequence of MAP2K7 (O14733 120-380): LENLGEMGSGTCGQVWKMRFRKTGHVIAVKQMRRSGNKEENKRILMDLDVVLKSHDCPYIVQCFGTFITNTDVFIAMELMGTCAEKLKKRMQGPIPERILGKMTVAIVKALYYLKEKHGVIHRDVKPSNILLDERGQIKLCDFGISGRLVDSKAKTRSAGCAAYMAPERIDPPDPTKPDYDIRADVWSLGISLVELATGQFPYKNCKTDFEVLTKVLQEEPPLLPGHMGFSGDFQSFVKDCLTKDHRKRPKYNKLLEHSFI
Sequence of BMP2KA (Q9NSY1 38-345): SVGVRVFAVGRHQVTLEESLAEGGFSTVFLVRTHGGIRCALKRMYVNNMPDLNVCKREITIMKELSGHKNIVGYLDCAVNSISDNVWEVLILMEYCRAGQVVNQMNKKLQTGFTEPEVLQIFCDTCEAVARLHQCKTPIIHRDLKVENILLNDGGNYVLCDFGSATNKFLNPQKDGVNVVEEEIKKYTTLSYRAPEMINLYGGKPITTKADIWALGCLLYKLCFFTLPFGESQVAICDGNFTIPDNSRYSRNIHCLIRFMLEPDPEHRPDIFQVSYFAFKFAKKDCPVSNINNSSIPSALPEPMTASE
Sequence of EPHA7A (Q15375 590-899): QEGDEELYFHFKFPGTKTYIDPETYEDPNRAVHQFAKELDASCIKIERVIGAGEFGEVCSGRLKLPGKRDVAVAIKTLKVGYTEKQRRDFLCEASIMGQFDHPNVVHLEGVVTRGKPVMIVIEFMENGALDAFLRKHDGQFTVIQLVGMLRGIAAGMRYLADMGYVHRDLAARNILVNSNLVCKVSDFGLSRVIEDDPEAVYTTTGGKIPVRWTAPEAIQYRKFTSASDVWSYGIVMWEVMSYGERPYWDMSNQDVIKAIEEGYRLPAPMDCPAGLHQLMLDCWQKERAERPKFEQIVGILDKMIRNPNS
Sequence of NQO2A (P16083 whole entry, the tested form may be a part): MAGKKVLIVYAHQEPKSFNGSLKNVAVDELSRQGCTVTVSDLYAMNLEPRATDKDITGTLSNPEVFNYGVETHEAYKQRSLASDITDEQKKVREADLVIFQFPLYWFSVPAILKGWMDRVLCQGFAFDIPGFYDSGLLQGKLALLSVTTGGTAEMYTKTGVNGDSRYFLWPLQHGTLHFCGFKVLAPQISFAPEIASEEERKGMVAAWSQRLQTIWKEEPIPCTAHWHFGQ
Sequence of NEK1A (Q96PY6 1-328): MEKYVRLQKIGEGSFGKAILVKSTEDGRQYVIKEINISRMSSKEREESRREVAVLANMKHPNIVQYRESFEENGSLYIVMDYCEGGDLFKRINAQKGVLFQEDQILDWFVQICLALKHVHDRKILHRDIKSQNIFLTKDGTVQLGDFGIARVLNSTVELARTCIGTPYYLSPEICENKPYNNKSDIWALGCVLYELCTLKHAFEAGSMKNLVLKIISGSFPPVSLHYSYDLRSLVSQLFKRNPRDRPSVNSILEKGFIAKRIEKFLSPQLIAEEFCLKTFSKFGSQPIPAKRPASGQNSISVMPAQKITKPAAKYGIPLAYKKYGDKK
Sequence of STK17BA (O94768 25-329): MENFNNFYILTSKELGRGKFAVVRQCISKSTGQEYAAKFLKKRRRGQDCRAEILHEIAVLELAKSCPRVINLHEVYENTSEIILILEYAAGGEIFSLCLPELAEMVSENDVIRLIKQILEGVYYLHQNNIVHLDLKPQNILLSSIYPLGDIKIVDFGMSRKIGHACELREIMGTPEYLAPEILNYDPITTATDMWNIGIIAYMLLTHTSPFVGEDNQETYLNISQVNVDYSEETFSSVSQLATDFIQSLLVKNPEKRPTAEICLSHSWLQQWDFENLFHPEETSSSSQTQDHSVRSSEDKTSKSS
Sequence of DAPK3A (O43293 9-289): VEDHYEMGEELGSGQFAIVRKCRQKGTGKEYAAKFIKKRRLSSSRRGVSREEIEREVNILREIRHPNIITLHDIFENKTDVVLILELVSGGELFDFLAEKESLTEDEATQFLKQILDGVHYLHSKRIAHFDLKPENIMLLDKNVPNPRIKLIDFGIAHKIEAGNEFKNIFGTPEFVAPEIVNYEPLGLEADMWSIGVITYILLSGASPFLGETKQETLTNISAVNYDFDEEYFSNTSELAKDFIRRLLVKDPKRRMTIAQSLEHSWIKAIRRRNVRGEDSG
Sequence of CAMK1DA (Q8IU85 whole entry): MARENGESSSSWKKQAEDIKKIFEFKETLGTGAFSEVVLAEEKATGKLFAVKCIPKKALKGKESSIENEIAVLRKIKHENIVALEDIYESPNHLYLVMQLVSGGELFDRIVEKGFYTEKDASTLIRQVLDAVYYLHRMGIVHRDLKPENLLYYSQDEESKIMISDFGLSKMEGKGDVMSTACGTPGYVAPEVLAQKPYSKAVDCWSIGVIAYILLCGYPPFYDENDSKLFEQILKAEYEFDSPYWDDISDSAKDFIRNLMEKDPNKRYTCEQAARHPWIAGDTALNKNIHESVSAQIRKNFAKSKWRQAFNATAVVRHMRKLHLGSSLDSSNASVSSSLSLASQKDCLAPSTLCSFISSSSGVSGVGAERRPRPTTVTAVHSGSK

With CN1C(=O)[C@@H](N2CCc3c(nn(Cc4ccccc4)c3C(N)=O)C2=O)COc2cc(Cl)ccc21 [Compound 10, (S)-2-benzyl-6-(8-chloro-5-methyl-4-oxo-2,3,4,5-tetrahydrobenzo[b][1,4]oxazepin-3-yl)-7-oxo-4,5,6,7-tetrahydro-2H-pyrazolo[3,4-c]pyridine-3-carboxamide] the ΔTm at 10 µM [1] was 0.6 °C, the ΔTm at 10 µM [2] was 0.3 °C and the ΔTm at 10 µM [3] was 0.1 °C. For the same compound, the ΔTm at 10 µM [4] was -0.1 °C, the ΔTm at 10 µM [5] was 0.1 °C and the ΔTm at 10 µM [6] was 0 °C. It also gave a ΔTm at 10 µM [7] of 0.3 °C, a ΔTm at 10 µM [8] of -0.2 °C and a ΔTm at 10 µM [9] of -0.3 °C. It also gave a ΔTm at 10 µM [10] of 0.2 °C, a ΔTm at 10 µM [11] of 0 °C and a ΔTm at 10 µM [12] of 0.2 °C. It also gave a ΔTM [13] of -0.1 K, a ΔTm at 10 µM [14] of -0.1 °C and a ΔTm at 10 µM [15] of 0.3 °C. The ΔTm at 10 µM [16] was 0 °C, the ΔTm at 10 µM [17] was 0.2 °C and the ΔTm at 10 µM [18] was 1.1 °C. For the same compound, the ΔTm at 10 µM [19] was 0.1 °C, the ΔTm at 10 µM [20] was 0.2 °C and the ΔTm at 10 µM [21] was 1.3 °C. The ΔTm at 10 µM [22] was 0.2 °C, the ΔTm at 10 µM [23] was -0.1 °C and the ΔTm at 10 µM [24] was -0.1 °C. It also gave a ΔTm at 10 µM [25] of -0.2 °C, a ΔTm at 10 µM [26] of 0 °C and a ΔTm at 10 µM [27] of 0 °C. It also gave a ΔTm at 10 µM [28] of 0 °C, a ΔTm at 10 µM [29] of 0.1 °C and a ΔTm at 10 µM [30] of 0.1 °C. The ΔTm at 10 µM [31] was 0.1 °C, the ΔTm at 10 µM [32] was 0.1 °C and the ΔTm at 10 µM [33] was 0.1 °C. The ΔTm at 10 µM [34] was 0.2 °C, the ΔTm at 10 µM [35] was -0.1 °C and the ΔTm at 10 µM [36] was -0.6 °C. It also gave a ΔTm at 10 µM [37] of 0.1 °C, a ΔTm at 10 µM [38] of 0.5 °C and a ΔTm at 10 µM [39] of -0.1 °C. It also gave a ΔTm at 10 µM [40] of 0 °C and a ΔTm at 10 µM [41] of 0.5 °C.
